The assay deals with MV-4-11 cells. The assay is described as follows: Gene expression microarray analysis (Affymetrix PrimeView) and GSEA. The class given is cell-based, human. Further details: RFU PODN (11730768_x_at) / Fold change /veh PODN (11730768_x_at) / RFU LINC00158 (11744669_a_at) / Fold change /veh LINC00158 (11744669_a_at) / RFU DUSP10 (11751237_a_at) / Fold change /veh DUSP10 (11751237_a_at) / RFU ID3 (11757404_x_at) / Fold change /veh ID3 (11757404_x_at) / RFU PLEKHG5 (11737974_s_at) / Fold change /veh PLEKHG5 (11737974_s_at) / RFU LRRC4B (11730491_at) / Fold change /veh LRRC4B (11730491_at) / RFU GIMAP4 (11747438_a_at) / Fold change /veh GIMAP4 (11747438_a_at) / RFU KRT8 (11758183_x_at) / Fold change /veh KRT8 (11758183_x_at) / RFU CNN1 (11734310_a_at) / Fold change /veh CNN1 (11734310_a_at) / RFU VPS37D (11726825_at) / Fold change /veh VPS37D (11726825_at) / RFU C10orf10 (11716522_x_at) / Fold change /veh C10orf10 (11716522_x_at) / RFU KIR2DL2 /// KIR2DL4 /// KIR2DL5A /// KIR2DL5B /// KIR2DS1 /// KIR2DS2 /// KIR2DS3 /// KIR2DS4 /// KIR3DL3 /// KIR3DL3 /// KIR3DS1 (11738374_at) / Fold change /veh KIR2DL2 /// KIR2DL4 /// KIR2DL5A /// KIR2DL5B /// KIR2DS1 /// KIR2DS2 /// KIR2DS3 /// KIR2DS4 /// KIR3DL3 /// KIR3DL3 /// KIR3DS1 (11738374_at) / RFU C1QL1 (11718748_at) / Fold change /veh C1QL1 (11718748_at) / RFU TMPRSS4 (11747572_a_at) / Fold change /veh TMPRSS4 (11747572_a_at) / RFU HAMP (11756126_x_at) / Fold change /veh HAMP (11756126_x_at) / RFU RNFT2 (11725882_a_at) / Fold change /veh RNFT2 (11725882_a_at) / RFU NR4A2 (11747474_a_at) / Fold change /veh NR4A2 (11747474_a_at) / RFU ABCC12 (11746883_a_at) / Fold change /veh ABCC12 (11746883_a_at) / RFU TMEM136 (11760407_x_at) / Fold change /veh TMEM136 (11760407_x_at) / RFU CLDN22 /// WWC2 (11732394_at) / Fold change /veh CLDN22 /// WWC2 (11732394_at) / RFU HLA-DPB1 (11760878_x_at) / Fold change /veh HLA-DPB1 (11760878_x_at) / RFU SPINT1 (11716480_a_at) / Fold change /veh SPINT1 (11716480_a_at) / RFU GAP43 (11754022_s_at) / Fold change /veh GAP43 (11754022_s_at) / RFU A4GNT (11735810_at) / Fold change /veh A4GNT (11735810_at) / RFU PRB3 (11715151_x_at) / Fold change /veh PRB3 (11715151_x_at) / RFU TUBB4B (11761932_at) / Fold change /veh TUBB4B (11761932_at) / RFU CAPN14 (11732068_a_at) / Fold change /veh CAPN14 (11732068_a_at) / RFU TMCC2 (11721928_a_at) / Fold change /veh TMCC2 (11721928_a_at) / RFU IRGQ (11745062_a_at) / Fold change /veh IRGQ (11745062_a_at) / RFU FAM174B (11720279_a_at) / Fold change /veh FAM174B (11720279_a_at) / RFU TMPRSS4 (11748680_a_at) / Fold change /veh TMPRSS4 (11748680_a_at) / RFU FAM212B (11763350_a_at) / Fold change /veh FAM212B (11763350_a_at) / RFU PLEKHG5 (11743358_a_at) / Fold change /veh PLEKHG5 (11743358_a_at) / RFU ZSCAN30 (11745921_a_at) / Fold change /veh ZSCAN30 (11745921_a_at) / RFU CMKLR1 (11741424_a_at) / Fold change /veh CMKLR1 (11741424_a_at) / RFU LOC101060620 /// MAPK8IP1 (11723275_at) / Fold change /veh LOC101060620 /// MAPK8IP1 (11723275_at) / RFU SPTSSB (11747773_x_at) / Fold change /veh SPTSSB (11747773_x_at) / RFU PRSS12 (11739890_at) / Fold change /veh PRSS12 (11739890_at) / RFU BIN1 (11741810_x_at) / Fold change /veh BIN1 (11741810_x_at) / RFU WNT11 (11732464_a_at) / Fold change /veh WNT11 (11732464_a_at) / RFU C10orf10 (11716521_a_at) / Fold change /veh C10orf10 (11716521_a_at) / RFU C5orf56 (11738089_at) / Fold change /veh C5orf56 (11738089_at) / RFU CYB561 (11721691_x_at) / Fold change /veh CYB561 (11721691_x_at) / RFU ANKRD19P (11752326_a_at) / Fold change /veh ANKRD19P (11752326_a_at) / RFU OR2T12 /// OR2T33 /// OR2T8 (11738714_s_at) / Fold change /veh OR2T12 /// OR2T33 /// OR2T8 (11738714_s_at) / RFU VCAN (11748164_a_at) / Fold change /veh VCAN (11748164_a_at) / RFU JSRP1 (11732532_at) / Fold change /veh JSRP1 (11732532_at) / RFU KRTAP10-11 (11738290_x_at) / Fold change /veh KRTAP10-11 (11738290_x_at) / RFU MYO3A (11730013_a_at) / Fold change /veh MYO3A (11730013_a_at) / RFU EBF3 (11725865_a_at) / Fold change /veh EBF3 (11725865_a_at) / RFU CAMK2N1 (11719241_x_at) / Fold change /veh CAMK2N1 (11719241_x_at) / RFU C5orf56 (11738088_a_at) / Fold change /veh C5orf56 (11738088_a_at) / RFU OLFML3 (11715873_a_at) / Fold change /veh OLFML3 (11715873_a_at) / RFU LOC100653217 /// NTM (11731650_a_at) / Fold change /veh LOC100653217 /// NTM (11731650_a_at) / RFU MAPK11 (11762145_a_at) / Fold change /veh MAPK11 (11762145_a_at) / RFU FIZ1 (11724087_x_at) / Fold change /veh FIZ1 (11724087_x_at) / RFU OASL (11726364_x_at) / Fold change /veh OASL (11726364_x_at) / RFU SOX15 (11748057_x_at) / Fold change /veh SOX15 (11748057_x_at) / RFU CD79A (11719716_a_at) / Fold change /veh CD79A (11719716_a_at) / RFU HIST1H1D (11736915_at) / Fold change /veh HIST1H1D (11736915_at) / RFU CASKIN2 (11723855_a_at) / Fold change /veh CASKIN2 (11723855_a_at) / RFU LOC730098 (11760151_x_at) / Fold change /veh LOC730098 (11760151_x_at) / RFU OR4N2 (11742367_at) / Fold change /veh OR4N2 (11742367_at) / RFU PRRT2 (11749266_a_at) / Fold change /veh PRRT2 (11749266_a_at) / RFU SNX32 (11753110_a_at) / Fold change /veh SNX32 (11753110_a_at) / RFU CDHR5 (11726645_a_at) / Fold change /veh CDHR5 (11726645_a_at) / RFU RCAN1 (11760418_a_at) / Fold change /veh RCAN1 (11760418_a_at) / RFU FAM167A (11723789_a_at) / Fold change /veh FAM167A (11723789_a_at) / RFU FAM26E (11764081_at) / Fold change /veh FAM26E (11764081_at) / RFU ISYNA1 (11749810_s_at) / Fold change /veh ISYNA1 (11749810_s_at) / RFU ACY1 (11761880_at) / Fold change /veh ACY1 (11761880_at) / RFU 11764098_at / Fold change /veh 11764098_at / RFU SAMD14 (11745864_x_at) / Fold change /veh SAMD14 (11745864_x_at) / RFU NPB (11741838_a_at) / Fold change /veh NPB (11741838_a_at) / RFU TMPRSS6 (11731388_a_at) / Fold change /veh TMPRSS6 (11731388_a_at) / RFU KRTAP10-2 (11738614_at) / Fold change /veh KRTAP10-2 (11738614_at) / RFU ARHGAP8 /// PRR5-ARHGAP8 (11727945_x_at) / Fold change /veh ARHGAP8 /// PRR5-ARHGAP8 (11727945_x_at) / RFU KRTAP5-7 /// NADSYN1 (11734609_at) / Fold change /veh KRTAP5-7 /// NADSYN1 (11734609_at) / RFU RASL12 (11751679_a_at) / Fold change /veh RASL12 (11751679_a_at) / RFU CDKN2B (11736163_a_at) / Fold change /veh CDKN2B (11736163_a_at) / RFU PRF1 (11729649_at) / Fold change /veh PRF1 (11729649_at) / RFU, ZNF638 /// ZNF638-IT1 / Fold change vs veh, ZNF638 /// ZNF638-IT1 / RFU, PANK3 / Fold change vs veh, PANK3 / RFU, SH3YL1 / Fold change vs veh, SH3YL1 / RFU, ZEB2 / Fold change vs veh, ZEB2 / RFU, NRIP1 / Fold change vs veh, NRIP1 / RFU, PTTG1IP / Fold change vs veh, PTTG1IP / RFU, CAPN2 / Fold change vs veh, CAPN2 / RFU, MED14 / Fold change vs veh, MED14 / RFU, SNORA58 / Fold change vs veh, SNORA58 / RFU, C1orf63 / Fold change vs veh, C1orf63 / RFU, LRRFIP1 / Fold change vs veh, LRRFIP1 / RFU, NDUFAF7 / Fold change vs veh, NDUFAF7 / RFU, SLC12A2 / Fold change vs veh, SLC12A2 / RFU, IBTK / Fold change vs veh, IBTK / RFU, ESF1 / Fold change vs veh, ESF1 / Fold change vs veh, TMEM50B / RFU, TAOK1 / Fold change vs veh, TAOK1 / RFU, ACBD3 / Fold change vs veh, ACBD3 / RFU, TMA16 / Fold change vs veh, TMA16 / RFU, RWDD3 / Fold change vs veh, RWDD3 / RFU, BCAT1 / Fold change vs veh, BCAT1 / RFU, EDEM3 / Fold change vs veh, EDEM3 / RFU, TMEM33 / Fold change vs veh, TMEM33 / RFU, WDR75 / Fold change vs veh, WDR75 / RFU, AHCTF1 / Fold change vs veh, AHCTF1 / RFU, TFRC / Fold change vs veh, TFRC / RFU, ZDHHC17 / Fold change vs veh, ZDHHC17 / RFU, NOM1 / Fold change vs veh, NOM1 / RFU, ARL8B / Fold change vs veh, ARL8B / RFU, ZBTB11 / Fold change vs veh, ZBTB11 / RFU, TAMM41 / Fold change vs veh, TAMM41 / RFU, KIAA1704 /// LOC100996395 / Fold change vs veh, KIAA1704 /// LOC100996395 / RFU, ING1 / Fold change vs veh, ING1 / RFU, TRMT61B / Fold change vs veh, TRMT61B / RFU, FUBP3 / Fold change vs veh, FUBP3 / RFU, TP53 / Fold change vs veh, TP53 / RFU, TNKS2 / Fold change vs veh, TNKS2 / RFU, ZFP14 / Fold change vs veh, ZFP14 / RFU, ACTR2 / Fold change vs veh, ACTR2 / RFU, PPP3R1 / Fold change vs veh, PPP3R1 / RFU, PIK3R1 / Fold change vs veh, PIK3R1 / RFU, HNRNPA1 / Fold change vs veh, HNRNPA1 / RFU, RNF170 / Fold change vs veh, RNF170 / RFU, ZNF28 / Fold change vs veh, ZNF28 / RFU, RNGTT / Fold change vs veh, RNGTT / RFU, OGT / Fold change vs veh, OGT / RFU, BRD1 / Fold change vs veh, BRD1 / RFU, MARS / Fold change vs veh, MARS / RFU, ZNF655 / Fold change vs veh, ZNF655 / RFU, FAHD1 / Fold change vs veh, FAHD1 / RFU, BDP1 / Fold change vs veh, BDP1 / RFU, LRRCC1 / Fold change vs veh, LRRCC1 / RFU, ARID1A / Fold change vs veh, ARID1A / RFU, ZNF146 / Fold change vs veh, ZNF146 / RFU, ZNF330 / Fold change vs veh, ZNF330 / RFU, GPN3 / Fold change vs veh, GPN3 / RFU, C9orf123 / Fold change vs veh, C9orf123 / RFU, N4BP2L2 / Fold change vs veh, N4BP2L2 / RFU, ARFIP1 / Fold change vs veh, ARFIP1 / RFU, FAM179B / Fold change vs veh, FAM179B / RFU, BCL10 / Fold change vs veh, BCL10 / RFU, UHRF1BP1L / Fold change vs veh, UHRF1BP1L / RFU, BET1 / Fold change vs veh, BET1 / RFU, CNOT2 / Fold change vs veh, CNOT2 / RFU, ZNF268 / Fold change vs veh, ZNF268 / Fold change vs veh, ZNF507 / RFU, DGCR2 / Fold change vs veh, DGCR2 / RFU, WDSUB1 / Fold change vs veh, WDSUB1 / Fold change vs veh, HSP90B1 /// MIR3652 / RFU, ADSS / Fold change vs veh, ADSS / RFU, GK / Fold change vs veh, GK / RFU, ZNF148 / Fold change vs veh, ZNF148 / RFU, TAF9 / Fold change vs veh, TAF9 / RFU, SLC1A5 / Fold change vs veh, SLC1A5 / RFU, SLMO2 / Fold change vs veh, SLMO2 / RFU, ABCC4 / Fold change vs veh, ABCC4 / RFU, LOC101060439 /// RAP1B / Fold change vs veh, LOC101060439 /// RAP1B / RFU, RFX7 / Fold change vs veh, RFX7 / RFU, GTPBP10 / Fold change vs veh, GTPBP10 / RFU, CNEP1R1 / Fold change vs veh, CNEP1R1 / RFU, BIVM-ERCC5 /// ERCC5 / Fold change vs veh, BIVM-ERCC5 /// ERCC5 / RFU, ILF3 / Fold change vs veh, ILF3 / RFU 11762660_at / Fold change /veh 11762660_at / RFU VCAN (11757783_s_at) / Fold change /veh VCAN (11757783_s_at) / RFU DDX43 (11728927_at) / Fold change /veh DDX43 (11728927_at) / RFU KRT8 (11758188_x_at) / Fold change /veh KRT8 (11758188_x_at) / RFU NKD1 (11759106_at) / Fold change /veh NKD1 (11759106_at) / RFU SRD5A1 (11742802_a_at) / Fold change /veh SRD5A1 (11742802_a_at) / RFU TPSAB1 /// TPSB2 (11721975_s_at) / Fold change /veh TPSAB1 /// TPSB2 (11721975_s_at) / RFU GSTM3 (11746129_a_at) / Fold change /veh GSTM3 (11746129_a_at) / RFU IL23R (11737362_x_at) / Fold change /veh IL23R (11737362_x_at) / RFU TMEM51 (11727254_a_at) / Fold change /veh TMEM51 (11727254_a_at) / RFU PIWIL2 (11732686_x_at) / Fold change /veh PIWIL2 (11732686_x_at) / RFU ORM1 (11744905_x_at) / Fold change /veh ORM1 (11744905_x_at) / RFU CCDC152 (11743942_at) / Fold change /veh CCDC152 (11743942_at) / RFU ECM1 (11717891_a_at) / Fold change /veh ECM1 (11717891_a_at) / RFU IL23R (11748794_a_at) / Fold change /veh IL23R (11748794_a_at) / RFU TNFAIP8L3 (11732012_x_at) / Fold change /veh TNFAIP8L3 (11732012_x_at) / RFU MBOAT4 (11741988_at) / Fold change /veh MBOAT4 (11741988_at) / RFU 11764193_at / Fold change /veh 11764193_at / RFU TMEM53 (11763286_at) / Fold change /veh TMEM53 (11763286_at) / RFU MAGEB2 (11727129_at) / Fold change /veh MAGEB2 (11727129_at) / RFU TMEM200A (11744735_a_at) / Fold change /veh TMEM200A (11744735_a_at) / RFU CCDC152 (11751479_a_at) / Fold change /veh CCDC152 (11751479_a_at) / RFU FAM211A (11726209_a_at) / Fold change /veh FAM211A (11726209_a_at) / RFU RGS16 (11746705_a_at) / Fold change /veh RGS16 (11746705_a_at) / RFU VCAN (11755009_s_at) / Fold change /veh VCAN (11755009_s_at) / RFU RHOB (11743442_s_at) / Fold change /veh RHOB (11743442_s_at) / RFU RGS16 (11720943_a_at) / Fold change /veh RGS16 (11720943_a_at) / RFU RGS16 (11720944_at) / Fold change /veh RGS16 (11720944_at) / RFU, VPS4B / Fold change vs veh, VPS4B / RFU, CREB1 / Fold change vs veh, CREB1 / RFU, DNAJC13 / Fold change vs veh, DNAJC13 / RFU, GNAQ / Fold change vs veh, GNAQ / RFU, CDK5R1 / Fold change vs veh, CDK5R1 / RFU, ZRANB3 / Fold change vs veh, ZRANB3 / RFU, CUL4A / Fold change vs veh, CUL4A / RFU, CCNY / Fold change vs veh, CCNY / RFU, UFL1 / Fold change vs veh, UFL1 / RFU, COG3 / Fold change vs veh, COG3 / RFU, DIAPH2 / Fold change vs veh, DIAPH2 / RFU, SKA2 / Fold change vs veh, SKA2 / RFU, AFF3 / Fold change vs veh, AFF3 / RFU, LMF1 / Fold change vs veh, LMF1 / RFU, IPO11 / Fold change vs veh, IPO11 / RFU, DFFB / Fold change vs veh, DFFB / RFU, FOXP1 / Fold change vs veh, FOXP1 / RFU, CARD8 / Fold change vs veh, CARD8 / RFU, STRN3 / Fold change vs veh, STRN3 / RFU, ADK / Fold change vs veh, ADK / RFU, RASSF2 / Fold change vs veh, RASSF2 / RFU, WIPF1 / Fold change vs veh, WIPF1 / RFU, LARP1B / Fold change vs veh, LARP1B / RFU, RASA1 / Fold change vs veh, RASA1 / RFU, RB1 / Fold change vs veh, RB1 / RFU, PPFIA1 / Fold change vs veh, PPFIA1 / RFU, MAT2A / Fold change vs veh, MAT2A / RFU, CCT5 / Fold change vs veh, CCT5 / RFU, WDR92 / Fold change vs veh, WDR92 / RFU, CUX1 / Fold change vs veh, CUX1 / RFU, TTC7A / Fold change vs veh, TTC7A / RFU, TMEM135 / Fold change vs veh, TMEM135 / RFU, DEPTOR / Fold change vs veh, DEPTOR / RFU, CPM / Fold change vs veh, CPM / RFU, DNAJB6 / Fold change vs veh, DNAJB6 / RFU, CACNA2D3 / Fold change vs veh, CACNA2D3 / RFU, DTX4 / Fold change vs veh, DTX4 / RFU, TFCP2 / Fold change vs veh, TFCP2 / RFU, GMCL1 /// GMCL1P1 / Fold change vs veh, GMCL1 /// GMCL1P1 / RFU, AEBP2 / Fold change vs veh, AEBP2 / RFU, SNHG1 /// SNORD22 /// SNORD25 /// SNORD26 /// SNORD27 /// SNORD28 /// SNORD29 /// SNORD31 / Fold change vs veh, SNHG1 /// SNORD22 /// SNORD25 /// SNORD26 /// SNORD27 /// SNORD28 /// SNORD29 /// SNORD31 / Fold change (Aza/veh), C12orf56 (ProbeSet 11735607_a_at) / Fold change (ACY-1035/veh), C12orf56 (ProbeSet 11735607_a_at) / Fold change (Aza/veh), FGFR1OP (ProbeSet 11751329_s_at) / Fold change (ACY-1035/veh), FGFR1OP (ProbeSet 11751329_s_at) / Fold change (Aza/veh), VPS36 (ProbeSet 11739960_a_at) / Fold change (ACY-1035/veh), VPS36 (ProbeSet 11739960_a_at) / RFU SYPL1 (11715823_x_at) / Fold change /veh SYPL1 (11715823_x_at) / RFU IGFBP7 (11715501_s_at) / Fold change /veh IGFBP7 (11715501_s_at) / RFU REEP3 (11722064_at) / Fold change /veh REEP3 (11722064_at) / RFU IGLL1 (11728026_x_at) / Fold change /veh IGLL1 (11728026_x_at): dose or concentration left out as unconfirmed. The conditions noted are these: ProbeSet 11728314_at; LIST B.

From PMC5218480 (PLoS ONE, 2017) come the findings set out here.

Take `Nc1ncn([C@@H]2O[C@H](CO)[C@@H](O)[C@H]2O)c(=O)n1` [azacitidine]: the “Fold change vs veh, ZNF148” value is recorded as 0.99.
